Data published in US8097620B2, “Diazaquinolones that inhibit prolyl hydroxylase activity” (Amgen Inc., priority 2007, dated 2012).

Molecular target: HIF PHD2 (Homo sapiens, UniProt Q9GZT9)
Assay: PHD2 inhibition assay (TR-FRET, VCB-Eu detection of hydroxylated P564-HIF1α peptide)
Type: biochemical
Details: 2 nM PHD2, 100 nM P564-HIF1α peptide, 0.25 μM 2-oxoglutarate, 100 μM FeCl2, 2 mM ascorbic acid, pH 6
Method: Inhibition of HIF PHD2 activity was quantified utilizing the TR-FRET technology. HIF PHD2 catalyzes a hydroxyl modification on the proline residue of the P564-HIF1α peptide substrate (Biotin-[…] (SEQ ID NO: 7)) resulting in recognition and binding of the europylated Von Hippel-Lindau protein (pVHL), elongin B and elongin C heterotrimeric (VCB-Eu) complex.
The PHD2 inhibition assay was executed by addition of freshly dissolved FeCl2 to 178.57 μM (100 μM final concentration) in PHD2 Reaction Buffer containing 30 mM MES, pH 6, 10 mM NaCl, 0.25% Brij-35, 0.01% BSA, and 1% DMSO. 28 μL of the iron solution and 2 μL of inhibitor compounds serially diluted in 100% DMSO (5% DMSO final) were added to black polypropylene 96-well microtiter plates. To that, 10 μL of 10 nM PHD2 (2 nM final) was added to all wells of the plate except for the 8 wells of column 12 (LO control), and allowed to incubate at room temperature on the shaker for one hour. Column 6 was the HI control containing PHD2 enzyme and 5% DMSO vehicle, but no inhibitor compound. To initiate the PHD2 enzymatic reaction, 10 μL of a solution containing 500 nM P564-HIF1α peptide (100 nM final), 10 mM ascorbic acid (2 mM final), and 1.25 μM 2-oxoglutarate (α-ketoglutarate; 0.25 μM final) in PHD2 Reaction Buffer was added to all wells of the plate and allowed to incubate on the shaker at room temperature for one hour.
The reaction was terminated by addition of 25 μL TR-FRET Buffer (50 mM TRIS-HCl, pH 9, 100 mM NaCl, 0.05% BSA, and 0.5% Tween-20) containing 150 mM succinate (product inhibitor; 50 mM final), 75 nM streptavidin-APC (25 nM final), and 7.5 nM VCB-Eu (2.5 nM final). The TR-FRET detection reagents were placed on a shaker for 1 hour to reach binding equilibrium before reading on the Discovery platform (PerkinElmer). Europium is excited at 315 nm and phosphoresces at 615 nm with a large Stoke's shift. APC, in turn, emits at 655 nm upon excitation at 615 nm. The TR-FRET signal is measured as the ratio of the APC 655 nm signal divided by the internal europium reference 615 nm emission signal.
The POC (percentage of control) was determined by comparing the signal from hydroxylated peptide substrate in the enzyme reaction containing inhibitor compound with that from PHD2 enzyme with DMSO vehicle alone (HI control), and no enzyme (LO control). POC was calculated using the formula: % control (POC)=(cpd−average LO)/(average HI−average LO)*100. Data (consisting of POC and inhibitor concentration in μM) was fitted to a 4-parameter equation (y=A+((B−A)/(1+((x/C)^D))), where A is the minimum y (POC) value, B is the maximum y (POC), C is the x (cpd concentration) at the point of inflection and D is the slope factor) using a Levenburg-Marquardt non-linear regression algorithm.

Sequence of HIF PHD2 (Q9GZT9 whole entry): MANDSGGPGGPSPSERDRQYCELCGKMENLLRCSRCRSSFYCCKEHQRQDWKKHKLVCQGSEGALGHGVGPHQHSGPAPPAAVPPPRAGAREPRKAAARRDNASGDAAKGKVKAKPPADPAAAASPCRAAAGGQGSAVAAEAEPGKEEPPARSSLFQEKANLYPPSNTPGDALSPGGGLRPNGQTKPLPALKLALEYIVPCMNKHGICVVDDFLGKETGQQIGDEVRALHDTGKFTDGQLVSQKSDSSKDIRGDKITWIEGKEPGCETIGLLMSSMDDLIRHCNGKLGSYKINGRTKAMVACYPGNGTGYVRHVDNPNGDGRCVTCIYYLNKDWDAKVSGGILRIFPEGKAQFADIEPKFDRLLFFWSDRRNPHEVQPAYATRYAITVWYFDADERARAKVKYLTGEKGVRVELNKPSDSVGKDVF

Row | IC50 | SMILES
1 | 24 nM | Cn1c(=O)c(C(=O)NCC(=O)O)c(O)c2cc(Cl)nnc21 [Example 1, 2-(3-chloro-5-hydroxy-8-methyl-7-oxo-7,8-dihydropyrido[2,3-c]pyridazine-6-carboxamido)acetic acid]
2 | 17 nM | Cn1c(=O)c(C(=O)NCC(=O)O)c(O)c2cc(-c3ccccc3)nnc21 [Example 2, 2-(5-hydroxy-8-methyl-7-oxo-3-phenyl-7,8-dihydropyrido[2,3-c]pyridazine-6-carboxamido)acetic acid]
3 | 22 nM | Cn1c(=O)c(C(=O)NCC(=O)O)c(O)c2cc(-c3cccs3)nnc21 [Example 3, 2-(5-hydroxy-8-methyl-7-oxo-3-(thiophen-2-yl)-7,8-dihydropyrido[2,3-c]pyridazine-6-carboxamido)acetic acid]
4 | 17 nM | Cn1c(=O)c(C(=O)NCC(=O)O)c(O)c2cc(C3=CCCC3)nnc21 [Example 4, 2-(3-cyclopentenyl-5-hydroxy-8-methyl-7-oxo-7,8-dihydropyrido[2,3-c]pyridazine-6-carboxamido)acetic acid]
5 | 8.8 nM | Cn1c(=O)c(C(=O)NCC(=O)O)c(O)c2cc(C3CCCC3)nnc21 [Example 5, 2-(3-cyclopentyl-5-hydroxy-8-methyl-7-oxo-7,8-dihydropyrido[2,3-c]pyridazine-6-carboxamido)acetic acid]
6 | 16 nM | Cn1c(=O)c(C(=O)NCC(=O)O)c(O)c2cc(C3=CCCCC3)nnc21 [Example 6, 2-(3-cyclohexenyl-5-hydroxy-8-methyl-7-oxo-7,8-dihydropyrido[2,3-c]pyridazine-6-carboxamido)acetic acid]
7 | 26 nM | CC(C)Oc1cccc(-c2cc3c(O)c(C(=O)NCC(=O)O)c(=O)n(C)c3nn2)c1 [Example 7, 2-(5-hydroxy-3-(3-isopropoxyphenyl)-8-methyl-7-oxo-7,8-dihydropyrido[2,3-c]pyridazine-6-carboxamido)acetic acid]
8 | 21 nM | CC(C)Oc1ccc(-c2cc3c(O)c(C(=O)NCC(=O)O)c(=O)n(C)c3nn2)cc1 [Example 8, 2-(5-hydroxy-3-(4-isopropoxyphenyl)-8-methyl-7-oxo-7,8-dihydropyrido[2,3-c]pyridazine-6-carboxamido)acetic acid]
9 | 14 nM | CC(C)Oc1ccccc1-c1cc2c(O)c(C(=O)NCC(=O)O)c(=O)n(C)c2nn1 [Example 9, 2-(5-hydroxy-3-(2-isopropoxyphenyl)-8-methyl-7-oxo-7,8-dihydropyrido[2,3-c]pyridazine-6-carboxamido)acetic acid]
10 | 25 nM | CSc1ncc2c(O)c(C(=O)NCC(=O)O)c(=O)n(C)c2n1 [Example 10, 2-(5-hydroxy-8-methyl-2-(methylthio)-7-oxo-7,8-dihydropyrido[2,3-d]pyrimidine-6-carboxamido)acetic acid]
11 | 16 nM | Cn1c(=O)c(C(=O)NCC(=O)O)c(O)c2cnc(N3CCCCC3)nc21 [Example 11, 2-(5-hydroxy-8-methyl-7-oxo-2-(piperidin-1-yl)-7,8-dihydropyrido[2,3-d]pyrimidine-6-carboxamido)acetic acid]
12 | 18 nM | COc1ncc2c(O)c(C(=O)NCC(=O)O)c(=O)n(C)c2n1 [Example 12, 2-(5-hydroxy-2-methoxy-8-methyl-7-oxo-7,8-dihydropyrido[2,3-d]pyrimidine-6-carboxamido)acetic acid]
13 | 240 nM | Cn1c(=O)c(C(=O)NCC(=O)O)c(O)c2cnc(N3CCOCC3)nc21 [Example 13, 2-(5-hydroxy-8-methyl-2-morpholino-7-oxo-7,8-dihydropyrido[2,3-d]pyrimidine-6-carboxamido)acetic acid]
14 | 6.9 nM | Cn1c(=O)c(C(=O)NCC(=O)O)c(O)c2cnc(C(F)(F)F)nc21 [Example 14, 2-(5-hydroxy-8-methyl-7-oxo-2-(trifluoromethyl)-7,8-dihydropyrido[2,3-d]pyrimidine-6-carboxamido)acetic acid]
15 | 7.35 nM | Cn1c(=O)c(C(=O)NCC(=O)O)c(O)c2cnc(N3CCCC3)nc21 [Example 15, 2-(5-hydroxy-8-methyl-7-oxo-2-(pyrrolidin-1-yl)-7,8-dihydropyrido[2,3-d]pyrimidine-6-carboxamido)acetic acid]
16 | 52.5 nM | CC1CCCCN1c1ncc2c(O)c(C(=O)NCC(=O)O)c(=O)n(C)c2n1 (centres unmarked) [Example 16, 2-(5-hydroxy-8-methyl-2-(2-methylpiperidin-1-yl)-7-oxo-7,8-dihydropyrido[2,3-d]pyrimidine-6-carboxamido)acetic acid]
17 | 8.8 nM | Cn1c(=O)c(C(=O)NCC(=O)O)c(O)c2ncc(-c3ccccc3)nc21 [Example 18, 2-(8-hydroxy-5-methyl-6-oxo-3-phenyl-5,6-dihydropyrido[3,2-b]pyrazine-7-carboxamido)acetic acid]
18 | 71 nM | CCC1CCCCN1c1ncc2c(O)c(C(=O)NCC(=O)O)c(=O)n(C)c2n1 (centres unmarked) [Example 19, 2-(2-(2-ethylpiperidin-1-yl)-5-hydroxy-8-methyl-7-oxo-7,8-dihydropyrido[2,3-d]pyrimidine-6-carboxamido)acetic acid]
19 | 175 nM | CCC1CCC(C)N(c2ncc3c(O)c(C(=O)NCC(=O)O)c(=O)n(C)c3n2)C1 (centres unmarked) [Example 20, 2-(2-(5-ethyl-2-methylpiperidin-1-yl)-5-hydroxy-8-methyl-7-oxo-7,8-dihydropyrido[2,3-d]pyrimidine-6-carboxamido)acetic acid]
20 | 152 nM | Cn1c(=O)c(C(=O)NCC(=O)O)c(O)c2cnc(N3CCCC4CCCCC43)nc21 (centres unmarked) [Example 21, 2-(5-hydroxy-8-methyl-2-(octahydroquinolin-1(2H)-yl)-7-oxo-7,8-dihydropyrido[2,3-d]pyrimidine-6-carboxamido)acetic acid]
21 | 2.9 nM | Cn1c(=O)c(C(=O)NCC(=O)O)c(O)c2cnc(-c3cccc(F)c3)nc21 [Example 22, 2-(2-(3-fluorophenyl)-5-hydroxy-8-methyl-7-oxo-7,8-dihydropyrido[2,3-d]pyrimidine-6-carboxamido)acetic acid]
22 | 12 nM | Cn1c(=O)c(C(=O)NCC(=O)O)c(O)c2cnc(C#CC3CC3)nc21 [Example 23, 2-(2-(2-cyclopropylethynyl)-5-hydroxy-8-methyl-7-oxo-7,8-dihydropyrido[2,3-d]pyrimidine-6-carboxamido)acetic acid]
23 | 3.9 nM | Cn1c(=O)c(C(=O)NCC(=O)O)c(O)c2cnc(C3CC3)nc21 [Example 24, 2-(2-cyclopropyl-5-hydroxy-8-methyl-7-oxo-7,8-dihydropyrido[2,3-d]pyrimidine-6-carboxamido)acetic acid]
24 | 4.3 nM | Cn1c(=O)c(C(=O)NCC(=O)O)c(O)c2cnc(-c3ccccc3)nc21 [Example 25, 2-(5-hydroxy-8-methyl-7-oxo-2-phenyl-7,8-dihydropyrido[2,3-d]pyrimidine-6-carboxamido)acetic acid]
25 | 1.5 nM | Cn1c(=O)c(C(=O)NCC(=O)O)c(O)c2cnc(-c3ccccc3F)nc21 [Example 26, 2-(2-(2-fluorophenyl)-5-hydroxy-8-methyl-7-oxo-7,8-dihydropyrido[2,3-d]pyrimidine-6-carboxamido)acetic acid]
26 | 2.3 nM | Cn1c(=O)c(C(=O)NCC(=O)O)c(O)c2cnc(-c3ccc(F)cc3)nc21 [Example 27, 2-(2-(4-fluorophenyl)-5-hydroxy-8-methyl-7-oxo-7,8-dihydropyrido[2,3-d]pyrimidine-6-carboxamido)acetic acid]
